According to US20200253979A1, “THERAPEUTIC METHODS RELATING TO HSP90 INHIBITORS” (AI Therapeutics, Inc., priority 2017, published 2020):

Assays:
[1] = test system: PD-L1 on tumor infiltrating leukocytes (CD45+, CD3−); experiment: PD-L1 on tumor infiltrating leukocytes in MC38 tumors; assay type: in vivo, mouse; conditions: 150 mg/kg QD×7
Experimental: To test if MPC-0767 may induce an anti-tumor immune response in addition to direct cytotoxic activity, down regulation of PD-Ll and the effector/regulatory T-cell ratio was measured in the same MC38 syngeneic model. On day 21, when the average tumor volume was 372 mm^3 in size, a second group of mice (n=6) was treated with 150 mg/kg MPC-0767 QD×7. One day post the last dose (day 28 post inoculation) tumors were harvested from the vehicle and 150 mg/kg MPC-0767 QD×7 group. Tumor infiltrating leukocytes (CD45^+, CD3^−) within the dissociated tumors were analyzed for PD-L1 expression by flow cytometry.

[2] = test system: MV-4-11 cell line (AML FLT3-ITD) xenograft; experiment: Subcutaneous MV-4-11 xenograft study; conditions: oral, 200 mg/kg QD×2 days then 150 mg/kg QD×15 days
Experimental: Each mouse was inoculated subcutaneously in the right flank with 5×10^6 tumor cells in 0.1 ml PBS/Matrigel (1:1). When the mean tumor volume reached 91 mm^3 in size, mice were randomized into 2 groups of 10. […] Tumor measurements (caliper) were taken on the indicated days. […] Student t-test was used to evaluate the statistical significance of the difference between these groups P<0.0001.

[3] = test system: phospho-S6 in MOLM-13 cells; experiment: Phospho-S6 by flow cytometry; assay type: cell-based, human; conditions: 24 hours
Experimental: To determine whether MPC-0767 can promote the degradation of FLT3-ITD and abolish downstream signaling, MV-4-11 and MOLM-13 cells were treated with vehicle or MPC-0767 (1 μM) for 24 hours. Cells were harvested for flow cytometry to assess cell surface FLT3 protein abundance. In addition, the measurement of a key phosphorylation site of S6 (phospho-S6) was used as a marker for oncogenic FLT3-ITD signaling (Zimmerman et al., Blood. 2013 122(22): 3607-3615). Indeed, in both MV-4-11 and MOLM-13 cells treated with MPC-0767 there was a >65% reduction in cell surface FLT3 (FIGS. 10A and 10B, respectively) and >70% reduction in phospho-S6 (FIGS. 10C and 10D, respectively).
We next explored whether the synergistic activity of MPC-0767 and ATO was due to a more complete abrogation of FLT3-ITD oncogenic signaling. […] After this time cells were harvested for the assessment of cell surface FLT3 expression by flow cytometry. To additionally measure the effects of abrogating FLT3, we assessed phospho-ERK (pERK) and phospho-S6 (pS6), as these are two known downstream effectors.

[4] = test system: BaF3 cells harboring EGFR exon20 V769_D770insASV; experiment: CellTiter-Glo cell viability; assay type: cell-based, murine
From the text: (§1) To determine whether MPC-0767 can also promote degradation of an EGFR exon20ins mutant, the BaF3 murine cell line was used (Warmuth et al., Curr Opin Oncol., 200719: 55-60). This cell line is dependent upon exogenous IL-3 for survival/growth but upon introduction of an oncogene, the cells no longer depend on exogenous IL-3, and instead survival is driven by the introduced oncogene. Thus, drugs that target the introduced oncogene will reduce BaF3 cell viability providing a mechanism to screen small molecules against relevant oncogenic mutations that arise in the clinic.
(§2) BaF3 cells harboring EGFR wild type (WT) or EGFR exon20 V769_D770insASV mutant were treated with increasing concentrations of MPC-0767 for 24 hours. After this time, cells were harvested for flow cytometry to assess cell surface EGFR expression (antibody for detection recognized both WT and mutant proteins). […] We further tested whether this finding translated to reduced survival in BaF3 cells expressing the EGFR mutant. Parental BaF3 cells (no mutant) or cells harboring EGFR exon20 V769_D770insASV were treated with increasing concentrations of MPC-0767 for 72 hours after which cell viability was determined using CellTiter-Glo®.

Parental BaF3 cells = experiment: CellTiter-Glo cell viability; assay type: cell-based, murine; conditions: Mus musculus; parental BaF3, 72 hours
From the text: as §1, §2

THP1 (THP-1) cells = experiment: CellTiter-Glo cell viability (single agent and combination); assay type: cell-based; conditions: THP1, 72 h
[5] = cited from earlier work
[6] = test system: PD-1+ Jurkat reporter cells with THP-1 AML cells; experiment: Jurkat NFAT-luciferase reporter T cell activation with THP-1 cells; assay type: cell-based; conditions: THP-1 treated overnight with IFNγ and MPC-0767 1 μM or 2 uM
From the text: The addition of antibodies that block the PD-1/PD-L1 pathway stimulate an increased T cell response in vitro, in pre-clinical animal models, and in cancer patients. This can lead to tumor regressions or tumor clearance in patients. To examine MPC-0767 effects on PD-L1 and T cell activation, we used a model system in which PD-1+ Jurkat T cells express luciferase under the control of the NFAT promoter (Promega, hereafter referred to Jurkat reporter cells). When T cells are stimulated through the T cell receptor (TCR), activation of the NFAT pathway drives expression of luciferase.
We next determined whether MPC-0767 reduction of PD-L1 could increase T cell stimulation similar to anti-PD-L1 blocking antibodies. THP-1 cells were treated overnight with IFNγ in the presence or absence of MPC-0767 (1 μM or 2 uM). THP-1 cells were washed and a portion saved for flow cytometry analysis of PD-L1 expression. The remaining cells were incubated with Jurkat reporter cells and anti-CD3 (10 ng/ml) for 6 hours.

[7] = test system: FLT3 mutants in BaF3 cells; experiment: Cell surface FLT3 in transfected BaF3 cells by flow cytometry; assay type: cell-based, murine; conditions: BaF3, cell surface expression, 24 hours
Experimental: (§3) We next sought to determine whether MPC-0767 can also promote the degradation of other FLT3 mutants that have been reported to confer resistance to FLT3 inhibitors. To do this, we again utilized the BaF3 murine cell line into which the following FLT3 mutants were transfected: FLT3 wild-type, FLT3-ITD, D835V, FLT3-ITD D835V, D835Y, FLT3-ITD D835Y, D835H, FLT3-ITD D835H, F691L, or FLT3-ITD F691L.
(§4) After puromycin selection, cells were treated with increasing concentrations of MPC-0767 (20-10000 nM) for 24 hours and then stained for cell surface expression of FLT3 (and mutants) and the median signal expression was quantified by flow cytometry.

FLT3 WT in BaF3 cells = experiment: as above; assay type: cell-based, murine; conditions: BaF3, 20-10000 nM, 24 hours
Experimental: as §3, §4

TUR cells = experiment: CellTiter-Glo cell viability (single agent and combination); assay type: cell-based; conditions: 72 h

## C[C@H](N)C(=O)O[C@@H](C)C(=O)N1CCC(CCn2c(Sc3cc4c(cc3Br)OCO4)nc3c(N)ncnc32)CC1 [MPC-0767]
[1]
  PD-L1 expression on tumor infiltrating leukocytes: significant reduction of PD-L1
[2]
  effect on body weight: without significant effects on body weight
  tumor regression: 84%
[2]; n=10
  complete tumor regression (animals): 5/10 and Five
[3]; MOLM-13, 1 μM
  reduction in phospho-S6: > 70%
[3]; MOLM-13, MPC-0767 800 nM, ATO 625 nM or combination
  pS6 level: reduced
[4]; Mus musculus, BaF3 EGFR exon20 V769_D770insASV, 72 hours
  EC50: 236 nM
[4]; mutant vs parental BaF3, 72 hours
  sensitivity to MPC-0767 relative to parental cells: approximately 3 times
Parental BaF3 cells
  EC50: 753 nM
THP1 (THP-1) cells; Homo sapiens, THP-1
  EC50: > 10000 nM
THP1 (THP-1) cells
  MPC-0767 Sensitivity: Resistant (EC50 values above 1 μM considered resistant)
[5]
  aqueous solubility: improved aqueous solubility
[6]
  inhibition of T cell activation: dose-dependently reduce inhibition of T cell activation
[7]
  potency against FLT3 mutants compared to FLT3 WT: approximately 5 ×
FLT3 WT in BaF3 cells
  cell surface expression of FLT3 WT: reduced cell surface expression of FLT3 WT
TUR cells
  EC50: 550 nM
  MPC-0767 Sensitivity: Sensitive (cell lines having EC50 values below 1 μM were considered to be sensitive)
